Data published in patent US20060252744A1 (priority 2005, published 2006).
Where two headings read alike, the source gives them in different places.

Assays:
[1] = target: human D2 dopamine receptor (Homo sapiens, UniProt P14416); assay: R-SAT functional receptor assay, D2 receptor co-expressed with Gαo; conditions: for activity at 1 µM: read-out: D2 basal (basal response, no drug = 100%); for Emax: read-out: % basal response (D2 intrinsic activity)
[2] = target: human D3 dopamine receptor (Homo sapiens, UniProt P35462); assay: R-SAT functional receptor assay, D3 receptor co-expressed with Gαo; conditions: for activity at 1 µM: read-out: D3 basal (basal response, no drug = 100%)
[3] = target: T1, human D2 receptors (Homo sapiens, UniProt P14416); assay: competitive radioligand D2 binding assay, (Methoxy-3H)-raclopride, membranes of transfected HEK-293T cells; conditions: mean of one or two experiments; butaclamol as control
T1 construct: expressed in transfected cells; host or cells: HEK-293T

[4] = steady state kinetics in humans given clozapine; cited from earlier work
[5] = compounds at 1 μM, mean +/− standard error, R-SAT

Sequence of human D3 dopamine receptor (P35462 whole entry): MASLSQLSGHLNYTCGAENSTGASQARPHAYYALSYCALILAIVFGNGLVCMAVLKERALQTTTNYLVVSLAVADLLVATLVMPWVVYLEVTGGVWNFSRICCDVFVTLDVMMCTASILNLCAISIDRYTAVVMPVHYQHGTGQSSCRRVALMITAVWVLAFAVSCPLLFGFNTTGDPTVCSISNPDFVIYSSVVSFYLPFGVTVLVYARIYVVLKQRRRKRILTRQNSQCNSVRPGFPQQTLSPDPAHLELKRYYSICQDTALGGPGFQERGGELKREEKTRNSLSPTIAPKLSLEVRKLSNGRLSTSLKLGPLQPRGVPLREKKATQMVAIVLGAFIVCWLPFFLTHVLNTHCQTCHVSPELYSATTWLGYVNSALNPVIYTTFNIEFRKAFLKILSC
T1 sequence (P14416 whole entry): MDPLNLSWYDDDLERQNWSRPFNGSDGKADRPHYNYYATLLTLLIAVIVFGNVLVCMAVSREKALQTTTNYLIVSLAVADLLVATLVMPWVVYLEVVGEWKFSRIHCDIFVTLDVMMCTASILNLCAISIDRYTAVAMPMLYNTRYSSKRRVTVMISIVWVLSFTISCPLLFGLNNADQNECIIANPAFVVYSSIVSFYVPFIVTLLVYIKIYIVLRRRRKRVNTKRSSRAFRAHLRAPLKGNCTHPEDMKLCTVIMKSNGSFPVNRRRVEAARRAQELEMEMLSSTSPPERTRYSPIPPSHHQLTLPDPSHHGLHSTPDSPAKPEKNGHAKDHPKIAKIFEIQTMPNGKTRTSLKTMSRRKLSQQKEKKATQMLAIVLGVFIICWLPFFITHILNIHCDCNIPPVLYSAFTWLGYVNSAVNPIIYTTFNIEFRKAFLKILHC
Sequence of human D2 dopamine receptor (P14416 whole entry): as above

Row | SMILES | activity at 1 µM [1] [%] | activity at 1 µM [2] [%] | Emax [1] [%] | Ki [3] [nM] | also measured
1 | CC1CCN(CCCC(=O)c2ccc(F)cc2)CC1 [melperone] | 76 | 75 |  |  | 
2 | CCN1CCC[C@H]1CNC(=O)c1c(O)c(Cl)cc(Cl)c1OC (racemic) [S(−)-raclopride] |  |  |  |  | D2 basal (basal response, no drug = 100%) [1, 5]: 60− %; D3 basal (basal response, no drug = 100%) [2, 5]: 56− %
3 | Cc1cccc2c1Oc1ccc(Cl)cc1N=C2N1CCNCC1 |  |  | 106 | 316 | 
4 | OCCN1CCN(CC/C=C2\c3ccccc3Sc3ccc(C(F)(F)F)cc32)CC1 [trans-(e)-flupenthixol] |  |  |  |  | D2 basal (basal response, no drug = 100%) [1]: 68 +/− 4%
5 | CN1CCN(C2=Nc3ccccc3Cc3ccccc32)CC1 [perlapine] | 58 | 74 |  |  | 
6 | CN1c2ccc(Cl)cc2N=C(N2CCNCC2)c2ccccc21 |  |  | 141 | 794 | 
7 | Clc1ccc2c(c1)N=C(N1CCNCC1)c1ccccc1O2 |  |  | 150 | 251 | 
8 | N#Cc1ccc2c(c1)N=C(N1CCNCC1)c1ccccc1N2 |  |  | 201 | 5010 | 
9 | OCCN1CCN(CC/C=C2/c3ccccc3Sc3ccc(C(F)(F)F)cc32)CC1 [cis-flupenthixol] |  |  |  |  | D2 basal (basal response, no drug = 100%) [1]: 59 +/− 4%
10 | OCCN1CCN(CCCN2c3ccccc3Sc3ccc(C(F)(F)F)cc32)CC1 [fluphenazine] | 61 | 55 |  |  | 
11 | CN1CCN(CC/C=C2/c3ccccc3Sc3ccc(S(=O)(=O)N(C)C)cc32)CC1 [thiothixene] | 73 | 68 |  |  | 
12 | CN1CCN(CCCN2c3ccccc3Sc3ccc(C(F)(F)F)cc32)CC1 [trifluoperazine] | 58 |  |  |  | 
13 | Clc1ccc2c(c1)N=C(N1CCNCC1)c1ccccc1N2 [N-desmethylclozapine, 8-chloro-11-(1-piperazinyl)-5H-dibenzo[b,e][1,4]diazepine] |  | 188 |  |  | EC50 [1]: 31.6 nM; intrinsic activity at D2 receptor (in words) ([1]; R-SAT): partial agonist; relative efficacy to pergolide at D2 ([1]; R-SAT): 34%; D2 basal (basal response, no drug = 100%) [1, 5]: 229 +/− 21%; EC50 [2]: 100 nM; intrinsic activity at D3 receptor (in words) ([2]; R-SAT): partial agonist; relative efficacy to pergolide at D3 ([2]; R-SAT): 40%; share of NDMC in total serum clozapine concentrations [4]: 40-75%
14 | Clc1ccc2c(c1)N=C(N1CCNCC1)c1ccccc1C2 |  |  | 260 | 12.6 | 
15 | Cc1cccc2c1Nc1ccc(Cl)cc1N=C2N1CCNCC1 |  |  | 102 | 6310 | 
16 | Fc1ccc2c(c1)N=C(N1CCNCC1)c1ccccc1N2 |  |  | 170 | 2510 | 
17 | O=C(CCCN1CCC(O)(c2cccc(C(F)(F)F)c2)CC1)c1ccc(F)cc1 [trifluperidol] | 58 | 54 |  |  | 
18 | CCN1CCCC1CNC(=O)c1cc(S(N)(=O)=O)ccc1OC (stereo not shown) [sulpiride] | 59 |  |  |  | D3 basal (basal response, no drug = 100%) [2, 5]: 55 +/− 9%
19 | Cc1nc2c(C)cccn2c(=O)c1CCN1CCC(c2noc3cc(F)ccc23)CC1 [ocaperiodone] |  |  |  |  | D2 basal (basal response, no drug = 100%) [1, 5]: 62 +/− 8%; D3 basal (basal response, no drug = 100%) [2, 5]: 51 +/− 10%
20 | CCN(CC)CCCN1c2ccccc2Sc2ccc(Cl)cc21 [chlorproethazine] |  |  |  |  | D2 basal (basal response, no drug = 100%) [1, 5]: 60 +/− 7%; D3 basal (basal response, no drug = 100%) [2, 5]: 63 +/− 10%
21 | Clc1ccc2c(c1)N=C(NC[C@@H]1CCCN1)c1ccccc1N2 |  |  | 105 | 1580 | 
22 | CCN(CC)CCNC(=O)c1cc(S(C)(=O)=O)ccc1OC [tiapride] | 65 | 57 |  |  | 
23 | O=C1Cc2cc(CCN3CCN(c4nsc5ccccc45)CC3)c(Cl)cc2N1 [ziprasidone] |  |  |  |  | D2 basal (basal response, no drug = 100%) [1, 5]: 66 +/− 8%
24 | Clc1ccc2c(c1)N=C(N1CCCNCC1)c1ccccc1N2 |  |  | 172 | 2000 | 

Row | SMILES | activity at 1 µM [1] [%] | activity at 1 µM [2] [%] | Emax [1] [%] | Ki [3] [nM] | also measured
25 | Cc1cccc2c1Oc1ccc(F)cc1N=C2N1CCNCC1 |  |  | 126 | 316 | 
26 | O=C(CCCN1CCC(O)(c2ccc(Br)cc2)CC1)c1ccc(F)cc1 [bromperidol] | 46 | 43 |  |  | 
27 | Cc1cc2c(s1)Nc1ccccc1N=C2N1CCN(C)CC1 [olanzapine] |  |  |  |  | D2 basal (basal response, no drug = 100%) [1]: 83 +/− 6%; D3 basal (basal response, no drug = 100%) [2, 5]: 83 +/− 6%
28 | O=C1NCN(c2ccccc2)C12CCN(CCCC(c1ccc(F)cc1)c1ccc(F)cc1)CC2 [fluspirilene] | 52 | 45 |  |  | 
29 | Cc1ccc(C2(O)CCN(CCCC(=O)c3ccc(F)cc3)CC2)cc1 [moperone] | 64 | 52 |  |  | 
30 | Cc1nc2n(c(=O)c1CCN1CCC(c3noc4cc(F)ccc34)CC1)CCCC2 [risperidone] |  |  |  |  | D2 basal (basal response, no drug = 100%) [1]: 63 +/− 2%
31 | Brc1ccc2c(c1)N=C(N1CCNCC1)CCN2 |  |  | 142 |  | 
32 | O=C1NCCN1CCN1CCC(c2cn(-c3ccc(F)cc3)c3ccc(Cl)cc23)CC1 [sertindole] | 61 |  |  |  | 
33 | Fc1ccc2c(c1)N=C(N1CCNCC1)c1ccccc1O2 |  |  | 207 | 501 | 
34 | O=C(CCCN1CCC2(CC1)C(=O)NCN2c1ccccc1)c1ccc(F)cc1 [spiperone] |  |  |  |  | D2 basal (basal response, no drug = 100%) [1]: 51 +/− 1%
35 | CSc1ccc2c(c1)N(CCC1CCCCN1C)c1ccccc1S2 (stereo not shown) [thioridazine] | 81 | 81 |  |  | 
36 | CN1CCN(CCCN2c3ccccc3Sc3ccc(Cl)cc32)CC1 [prochlorperazine] | 57 | 53 |  |  | 
37 | Brc1ccc2c(c1)N=C(N1CCNCC1)c1ccccc1N2 |  |  | 147 | 158 | 
38 | Brc1ccc2c(c1)N=C(N1CCNCC1)c1ccccc1O2 |  |  | 155 | 126 | 
39 | Cc1cccc2c1Oc1ccc(Br)cc1N=C2N1CCNCC1 |  |  | 112 | 794 | 
40 | Clc1ccc2c(c1)N=C(N1CC3CC1CN3)c1ccccc1N2 (stereo not shown) |  |  | 116 | 2510 | 
41 | OCCN1CCN([C@@H]2C[C@@H](c3ccc(F)cc3)c3ccc(C(F)(F)F)cc32)CC1 (racemic) [tefludazine] | 67 | 47 |  |  | 
42 | CC(C)(C)[C@]1(O)CCN2C[C@H]3c4ccccc4CCc4cccc(c43)[C@@H]2C1 [butaclamol] |  |  |  |  | D2 basal (basal response, no drug = 100%) [1, 5]: 60 +/− 2%
43 | O=c1[nH]c2ccccc2n1C1CCN(CCCC(c2ccc(F)cc2)c2ccc(F)cc2)CC1 [pimozide] | 43 | 54 |  |  | 
44 | CN(C)CCCN1c2ccccc2Sc2ccccc21 [promazine] | 76 | 83 |  |  | 
45 | Cc1cccc2c1Oc1ccc(C(F)(F)F)cc1N=C2N1CCNCC1 |  |  | 118 | 2510 | 
46 | CCc1c(C)[nH]c2c1C(=O)C(CN1CCOCC1)CC2 (stereo not shown) [molindone] | 70 | 65 |  |  | 
47 | CN1CCN(C2Cc3ccccc3Sc3ccc(Cl)cc32)CC1.O=C(O)/C=C\C(=O)O (stereo not shown) [octoclothepin] |  |  |  |  | D3 basal (basal response, no drug = 100%) [2]: 60 +/− 8%
